Measurements as given in US9354225B2 (priority 2009, dated 2016).
Like-named read-outs stand apart in the source and are kept apart here.

Tested on: PrPsc signal in buffy coat (scrapie blood leukocytes)
Format: cell-based, sheep
Conditions: for PrPsc signal from the buffy coat (OD): additive 5 mM final in whole blood at collection, stored 24 h at 4° C. or room temperature; for preservation of the PrPsc harbored in the buffy coat of blood: scrapie sheep of both ARQ/ARQ and VRQ/VRQ genotypes, additive in blood, stored for at least 24 h
[1] = pre-clinical scrapie sheep #1 (ARQ/ARQ), FIG. 1
[2] = pre-clinical scrapie sheep #2 (ARQ/ARQ), FIG. 2

Row | Molecule | PrPsc signal from the buffy coat (OD) [1] | PrPsc signal from the buffy coat (OD) [2] | preservation of the PrPsc harbored in the buffy coat of blood | detection signal in buffy coat fractions of blood samples (scrapie animals, samples processed 24 hours post-collection) | percentage loss of PrPsc signal relative to sample processed immediately
1 | O=C(O)CN(CCOCCOCCN(CC(=O)O)CC(=O)O)CC(=O)O [EGTA, ethylene glycol tetraacetic acid] | preserve the PrPsc signal | preserve the PrPsc signal | allow for the preservation of the PrPsc | – | –
2 | N[C@@H](CCC(=O)N[C@@H](CS)C(=O)NCC(=O)O)C(=O)O [L-glutathione (reduced)] | preserve the PrPsc signal | preserve the PrPsc signal | allow for the preservation of the PrPsc | can preserve the detection signal | –
3 | oxidized L-glutathione | – | – | – | – | lack of effect
